Patent US5646156A, “Inhibition of eosinophil activation through A3 adenosine receptor antagonism” (Merck & Co., Inc., priority 1994, dated 1997)
pKd, pKi: −log10 of the molar value. “And” between values parts separate entries of the source, which are not always exact repeats. Equal entries are not always repeated. “Also recorded” adds a separate entry of the source. Where two headings read alike, the source gives them in different places.

Key:
[1] = system: rat A3 adenosine receptor; settings: reported in literature; cited from earlier work
[2] = system: human adenosine receptors (all subtypes); settings: cited from earlier work
[3] = target: T1, human A3 adenosine receptor (Homo sapiens, UniProt P0DMS8); test: Competition binding vs 125I-ABA, membranes of CHO cells stably expressing HS-21a (human A3 adenosine receptor); settings: for pKi: competition with 125I-ABA, CHO membranes, human A3
T1 construct: clone HS-21a contained the complete open reading frame corresponding to the human homolog of the rat A3 adenosine receptor; expressed in transfected cells; host or cells: CHO cells, stably transfected (pCMV5-A3; pSVL and pREP vectors are also described)
T1 sequence (P0DMS8 1-318): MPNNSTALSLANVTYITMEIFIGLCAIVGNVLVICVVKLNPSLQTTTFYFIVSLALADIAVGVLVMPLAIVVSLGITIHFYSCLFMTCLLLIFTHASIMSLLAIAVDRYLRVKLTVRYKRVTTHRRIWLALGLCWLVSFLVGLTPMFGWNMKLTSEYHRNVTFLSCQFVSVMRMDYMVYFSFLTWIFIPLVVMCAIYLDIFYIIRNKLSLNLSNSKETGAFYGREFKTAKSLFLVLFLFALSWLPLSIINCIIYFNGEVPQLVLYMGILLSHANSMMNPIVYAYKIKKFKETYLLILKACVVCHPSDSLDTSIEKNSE
Method: Pellets were resuspended in 5 mM Hepes, pH 7.4/5 mM MgCl2 /0.1 mM benzamidine/0.1 mM PMSF at a protein concentration of 1-2 mg/mL and were incubated with adenosine deaminase (Boehringer Mannheim), 2 U/mL at 37° C. for 20 minutes. […] The assay was terminated by rapid filtration and three washes with ice-cold binding buffer on a Skatron harvester equipped with a receptor binding filtermat (Skatron Instruments, INC). […] Nonspecific binding was measured in the presence of 1 μM I-ABA. […] Binding data were analyzed and competition curves were constructed by use of the nonlinear regression curve fitting program Graph PAD InPlot, Version 3.0 (Graph Pad Software, San Diego).

[4] = system: cytokine activated eosinophils; test: Treatment of cytokine activated eosinophils (hypersensitivity to adenosine, degranulation, effector function); type: cell-based
[5] = target: T1, human A3 adenosine receptor; settings: antagonist potency in cAMP assay; disclosed by Salvatore et al.; cited from earlier work
[6] = target: sheep A3 adenosine receptor; settings: cited from earlier work
[7] = target: T1, human A3 adenosine receptor; test: Saturation binding of 125I-ABA to membranes of CHO cells stably expressing HS-21a (human A3 adenosine receptor); settings: for prevention of specific binding of 125I-ABA: 1 mM nonradioactive I-ABA (so in the source) or 400 μM NECA
[8] = target: T1, human A3 adenosine receptor; test: Inhibition of forskolin-stimulated cAMP accumulation, CHO cells stably expressing HS-21a (human A3 adenosine receptor); type: cell-based
Method: (§1) Determinations were made on stably transfected CHO cells in suspension as described (Linden et al., (1993) Mol. Pharm. 44:524-532). Supernatants (500 μL) were acetylated and acetylcyclic AMP was measured by automated radioimmunoassay (Hamilton, B. R. and Smith, D. O. (1991) J. Physiol. (Lond.) 432, 327-341). Antagonist dissociation constants were estimated from pA2 values as described by Schild (1957) Pharm. Rev. 9, 242-246).
(§2) The ability of the HS-21a receptor stably expressed in CHO cells to couple to the cAMP regulatory system was measured using adenosine as an agonist. […] In the absence of forskolin, adenosine had no effect on the cAMP levels. In non-transfected CHO cells, adenosine had no effect on cAMP levels when measured with or without forskolin treatment.

[9] = system: non-transfected CHO cells; test: cAMP levels in non-transfected CHO cells; type: cell-based; settings: with or without forskolin
Method: as §1, §2

eosinophils = test: Induction of eosinophil activation in animals; settings: in vivo
asthmatics = settings: cited from earlier work; for bronchoconstriction in asthmatics: not nonasthmatics
activated mast cells = settings: cited from earlier work
[10] = Radioligand binding to membranes from CHO cells (non-transfected / non-specific)
[11] = system: sheep A3 adenosine receptor; settings: CHO cells; cited from earlier work
[12] = system: A3 adenosine receptor transcript, human eosinophils; test: A3 adenosine receptor transcript expression (RT-PCR) in GM-CSF stimulated eosinophils; type: cell-based; settings: GM-CSF (150 pM, 16 hours)
Method: (§3) Eosinophils and neutrophils (80-99% purity) were purified from human peripheral blood by an immunomagnetic procedure described by Hansel et al. (1991) J. Immunol. Methods 145: 105-110. Isolated cells (2-2.6×10^6 cells/mL) were cultured in the presence of 150 pM human recombinant granulocyte-macrophage colony stimulating factor, GM-CSF (Calbiochem, San Diego, Calif.) for 16 hours in RPMI with 10% fetal calf serum, at 37° C. in 5% CO2. Total RNA was extracted by the guanidinium isothiocyanate method (Chirgwin, J. M., et al, (1979) Biochemistry 18:5294-5299) from approximately 1.3×10^7 human eosinophils (+) or (-) GM-CSF stimulation. […]
(§4) Human adenosine receptor subtype transcript expression was determined using the polymerase chain reaction (PCR). […]
(§5) Ten μl of each PCR amplification reaction was elecrophoresed on a 1.4% agarose gel and alkaline blotted to Zeta-Probe GT membranes according to the manufacturer's protocol (BIO-RAD, Hercules, Calif.). […] The presence of A2a, A2b and A3 receptor PCR products were detected from normal and GM-CSF treated eosinophils.
(§6) PCR reaction products were quantitated using a Molecular Dynamics Phosphorimager and ImageQuant software. […] Quantitation of GAPDH was used to correct message level differences in the (+) or (-) GM-CSF stimulated human eosinophils. […]

[13] = system: A2b adenosine receptor transcript, human eosinophils; test: A2b adenosine receptor transcript expression (RT-PCR) in GM-CSF stimulated eosinophils; type: cell-based; settings: GM-CSF (150 pM, 16 hours)
Method: as §3, §4, §5, §6

[14] = system: A2a adenosine receptor transcript, human eosinophils; test: A2a adenosine receptor transcript expression (RT-PCR) in GM-CSF stimulated eosinophils; type: cell-based
Method: as §3, §4, §5, §6

[15] = system: A1 adenosine receptor transcript, human eosinophils; test: A1 adenosine receptor transcript expression (RT-PCR) in GM-CSF stimulated eosinophils; type: cell-based
Method: as §3, §4, §5, §6

[16] = target: T1, human A3 adenosine receptor; settings: potencies disclosed by Salvatore et al.; cited from earlier work
[17] = 125I-ABA, HS-21a stable CHO cell membranes

CCCn1c(=O)c2[nH]c(-c3ccc(OCC(=O)NCCN)cc3)nc2n(CCC)c1=O [XAC, xanthine amine cogener]
binding to rat A3 receptor [1]: not to bind
blockade of human adenosine receptor subtypes [2]: blocked

CCCn1c(=O)c2[nH]c(C3CCCC3)nc2n(CCC)c1=O [DPCPX, 1,3-dipropyl-8-cyclopentylxanthine]
binding to rat A3 receptor [1]: not to bind
blockade of human adenosine receptor subtypes [2]: blocked

CCCn1c(=O)c2[nH]c(-c3ccc(OCC(=O)O)cc3)nc2n(Cc2ccc(N)c(I)c2)c1=O [I-ABOPX, 3-(3-iodo-4-aminobenzyl)-8-(4-oxyacetate)phenyl-1-propylxanthine]
pKi [3]: 7.74
affinity for human A3 receptor ([3]; in words): highest affinity antagonist yet reported for A3 adenosine receptors
hypersensitivity to adenosine, eosinophil degranulation and effector function [4]: blockade of this hypersensitivity and inhibition of eosinophil degranulation and effector function
cAMP pKi [5]: 8.13
pKi [6]: 8.70

Nc1nc2c(ncn2[C@@H]2O[C@H](COP(=O)(O)OP(=O)(O)OP(O)(O)=S)[C@@H](O)[C@H]2O)c(=O)[nH]1 [GTPγS, guanosine 5'-O-3-thiotriphosphate]
inhibition at 10 µM ([7]; read-out: reduction of specific binding of 125I-ABA): 56%

Nc1ncnc2c1ncn2[C@@H]1O[C@H](CO)[C@@H](O)[C@H]1O [adenosine]
inhibition at 10 µM ([8]; CHO, read-out: inhibition of forskolin-stimulated increase in cAMP): 30%
effect on cAMP levels in absence of forskolin ([8]; HS-21a CHO cells, no forskolin): no effect
effect on cAMP levels in non-transfected CHO cells [9]: no effect
eosinophil activation in animals (eosinophils): induce eosinophil activation
bronchoconstriction in asthmatics (asthmatics; listed as Adenosine): induces bronchoconstriction in asthmatics but not in normal individuals; also recorded: produces bronchoconstriction in asthmatics but not in nonasthmatics
bronchoconstriction in asthmatics (asthmatics): produces bronchoconstriction
release of histamine from activated mast cells (activated mast cells): potentiate

CCNC(=O)[C@H]1O[C@@H](n2cnc3c(N)ncnc32)[C@H](O)[C@@H]1O [NECA, N-ethylcarboxamidoadenosine]
prevention of specific binding of 125I-ABA [7]: prevented

Cn1c(=O)c2[nH]cnc2n(C)c1=O [theophylline]
antagonism of adenosine-induced bronchoconstriction (asthmatics): antagonized

Nc1ccc(CNc2ncnc3c2ncn3[C@@H]2O[C@H](CO)[C@@H](O)[C@H]2O)cc1[125I] [^125 I-ABA, N^6-(4-amino-3-^125 iodobenzyl)adenosine]
Bmax [7, 17]: 258 fmol/mg protein
Hill coefficient [7, 17]: 0.99
pKd ([7]; 125I-ABA, HS-21a stable CHO cell membranes, read-out: dissociation constant): 8.00
specific binding to non-transfected CHO cell membranes ([10]; 125I-ABA): No specific binding

Nc1ccc(CNc2ncnc3c2ncn3[C@@H]2O[C@H](CO)[C@@H](O)[C@H]2O)cc1I [I-ABA]
prevention of specific binding of 125I-ABA [7]: prevented
inhibition of forskolin-stimulated cyclic AMP accumulation compared with NECA and other agonists (PIA and CPA) ([8]; CHO cells, human A3): only about half as much inhibition
agonist type for lowering cyclic AMP ([8]; CHO cells, human receptor): partial agonist
shift of NECA dose response curve to lower cyclic AMP ([8]; NECA in presence of I-ABA): fight-shifted
agonist type for lowering cyclic AMP [11]: full

Nc1ccc(CCNc2ncnc3c2ncn3[C@@H]2O[C@H](CO)[C@@H](O)[C@H]2O)cc1[125I] [^125 I-APNEA, N^6-2-(4-amino-3-^125 iodophenyl)ethyladenosine]
non-specific binding to CHO cell membranes ([10]; 125I-APNEA, preliminary experiments): high non-specific

GM-CSF: human recombinant granulocyte-macrophage colony stimulating factor, GM-CSF (Calbiochem, San Diego, Calif.)
up-regulation of A3 transcripts [12]: ~10 fold
up-regulation of A2b transcripts [13]: ~3 fold and 3 to 4 fold
A2a transcript / message level change [14]: no change; also recorded: remained unchanged
A1 transcript expression [15]: no A1 products were observed; also recorded: remained unchanged

CCCn1c(=O)c2[nH]c(-c3ccc(C=CC(=O)O)cc3)nc2n(CCC)c1=O [BW-A1433, 1,3-dipropyl-8-(4-acrylate)phenylxanthine]
pKi [3]: 7.26
BINDING pKi [16]: 7.26
cAMP pKi [5]: 7.0
blockade of human adenosine receptor subtypes [2]: blocked
